Results on 65 molecules are retold here after US9533999B2, “Fused thiazin-3-ones as KCA3.1 inhibitors” (Boehringer Ingelheim International GmbH, priority 2012, dated 2017).

Broadly, the IC50 is the concentration that inhibits the measured activity by half.

The structures appear in SMILES notation.

One test deals with human KCa3.1 (Homo sapiens (Human), UniProt O15554). The test is described as follows: KCa3.1 Assay (FLIPR thallium influx). The format is cell-based. The note with it: HEK293 cells over-expressing human KCa3.1; Tl+ influx, FLIPR dye; 15 min compound treatment. The procedure: HEK293 cells over-expressing human KCa3.1 are used to measure the effects of compounds in inhibiting the KCa3.1 channel function. The assay is based on measuring the influx of Tl^+ through KCa3.1 using a FLIPR dye assay (FLIPR Potassium Ion Channel Assay Kit #R8154 by Molecular Devices). The day before the assay HEK293/KCa3.1 cells are seeded on a 384 well plate. On the day of the assay, media is removed and replaced with Molecular Devices Potassium Ion Channel dye then incubated for 1 hour according to manufacturer's recommendations. The cells are then treated with compounds or DMSO control for 15 min, followed by addition of thallium (final concentration=1.5 mM) and ionomycin (final concentration=1 uM). The plate is read on HAMAMATSU […] measuring fluorescence signal for 50 seconds using (Em: 565-625 nm). Data analysis: HAMAMATSU 6000 data are exported using max-min value for frame 10 and 40 and corrected by spatial uniformity correction. Percent of control (POC) is calculated as 100×(max-minFlsample−max-minFllow)/(max-minFlhi−max-minFllow). Max-min Flsample is max-min value of each sample well containing test compound. Max-min Fllow is average max-min value of wells containing reference inhibitory compound. Max-min Flhi is average max-min value of wells containing DMSO. IC50 values are determined by nonlinear curve fitting of the data from a duplicate 11-point concentration-response curve.

The next test deals with aortas of ApoE−/− mice. The conditions noted are these: cited from earlier work.
For the next test, the system named is C57BL/6 mice. The note with it: MOG35-55 peptide induced; cited from earlier work.
In a further test the test system is mice. The conditions noted are these: UUO-induced, treated mice; cited from earlier work.

On to `O=C1CS(=O)(=O)c2cccnc2N1Cc1cccc(C(F)(F)F)c1` [Compound I-1], for which, on human KCa3.1, the IC50 turned out to be 0.29 µM.
`CC(c1cccc(C(F)(F)F)c1)N1C(=O)CS(=O)(=O)c2cccnc21` (stereo not shown) [Compound I-2]: the IC50 at human KCa3.1 amounted to 0.12 µM.
In turn, `O=C1CS(=O)(=O)c2cccnc2N1Cc1ccc(Cl)c(C(F)(F)F)c1` [Compound I-3] displayed an IC50 against human KCa3.1 of 0.18 µM.
On human KCa3.1, `CC(c1ccc(Cl)c(C(F)(F)F)c1)N1C(=O)CS(=O)(=O)c2cccnc21` (stereo not shown) [Compound I-4] returned an IC50 of 0.14 µM.
Take `O=C1CS(=O)(=O)c2cccnc2N1Cc1ccc(F)c(OC(F)(F)F)c1` [Compound I-5]: the IC50 at human KCa3.1 stood at 0.049 µM.
Regarding `O=C1CS(=O)(=O)c2cccnc2N1CCc1ccccc1C(F)(F)F` [Compound I-6], inhibition against human KCa3.1 was half-maximal at 5 µM (IC50).
Molecule `O=C1CS(=O)(=O)c2cccnc2N1CCc1cccc(C(F)(F)F)c1` [Compound I-7] yielded an IC50 on human KCa3.1 of 0.35 µM.
Same read-out and setting: under `CC(c1cc(C(F)(F)F)ccn1)N1C(=O)CS(=O)(=O)c2cccnc21` (stereo not shown) [Compound I-8] stands 1.9 µM; under `CC(c1cccc(C(F)(F)F)c1)N1C(=O)CS(=O)(=O)c2cc(Cl)cnc21` (stereo not shown) [Compound I-9], 0.11 µM.
On to `O=C1CS(=O)(=O)c2cc(Cl)cnc2N1Cc1ccc(Cl)c(C(F)(F)F)c1` [Compound I-10], for which the IC50 on human KCa3.1 was found to be 0.18 µM.
Regarding `O=C1CS(=O)(=O)c2cccnc2N1Cc1ccc(Cl)c(OC(F)(F)F)c1` [Compound I-12], at human KCa3.1, half-maximal inhibition (IC50) required 0.077 µM.
Still for that read-out and setting: the figure for `O=C1CS(=O)(=O)c2cccnc2N1Cc1ccc(Cl)c(S(=O)(=O)C(F)(F)F)c1` [Compound I-13] is 0.83 µM; for `O=C1CS(=O)(=O)c2cc(Cl)cnc2N1Cc1ccc(F)c(OC(F)(F)F)c1` [Compound I-15] it is 0.092 µM.
Molecule `O=C1CS(=O)(=O)c2cccnc2N1CCc1cccc(Cl)c1` [Compound I-16] registered a half-maximal inhibitory concentration (IC50) at human KCa3.1 of 2 µM.
For the molecule `COC(=O)c1ccc2c(n1)N(Cc1ccc(F)c(OC(F)(F)F)c1)C(=O)CS2(=O)=O` [Compound I-18], the IC50 at human KCa3.1 turned out to be 0.088 µM.
With `CC(c1cccc(C(F)(F)F)c1)N1C(=O)CS(=O)(=O)c2ccc(C(=O)N(C)C)nc21` (stereo not shown) [Compound I-19], the midpoint of inhibition against human KCa3.1, the IC50, lay at 2.2 µM.
On the same count and under the same terms, the figure for `NC(=O)c1ccc2c(n1)N(Cc1ccc(Cl)c(C(F)(F)F)c1)C(=O)CS2(=O)=O` [Compound I-20] is 0.49 µM; for `CC(c1cccc(C(F)(F)F)c1)N1C(=O)CS(=O)(=O)c2ncc(Br)cc21` (stereo not shown) [Compound I-21] it is 0.24 µM; for `C[C@@H](c1cccc(C(F)(F)F)c1)N1C(=O)CS(=O)(=O)c2nccnc21` [Compound I-22, 1,1-dioxo-4-[(S)-1-(3-trifluoromethyl-phenyl)-ethyl]-1,4-dihydro-2H-11ambda*6*-pyrazino[2,3-b][1,4]thiazin-3-one] it is 1.1 µM.
On human KCa3.1, `O=C1CS(=O)(=O)c2nccnc2N1Cc1ccc(F)c(OC(F)(F)F)c1` [Compound I-23] gave an IC50 of 0.17 µM.
Molecule `O=C1CS(=O)(=O)c2nccnc2N1Cc1cccc(C(F)(F)F)c1` [Compound I-24] gave an IC50 against human KCa3.1 of 2.6 µM.
On to `O=C1CS(=O)(=O)c2ncsc2N1Cc1cccc(C(F)(F)F)c1` [Compound I-25, 4,4-dioxo-7-(3-trifluoromethyl-benzyl)-4,7-dihydro-5H-41ambda*6*-thiazolo[4,5-b][1,4]thiazin-6-one], for which the IC50 at human KCa3.1 was 3.7 µM.
In the case of `O=C1CS(=O)(=O)c2ncsc2N1Cc1ccc(F)c(OC(F)(F)F)c1` [Compound I-26], the IC50 at human KCa3.1 was 0.51 µM.
Regarding `Cc1nc2c(s1)N(Cc1ccc(F)c(OC(F)(F)F)c1)C(=O)CS2(=O)=O` [Compound I-27], 0.31 µM corresponded to half-maximal inhibition on human KCa3.1 (IC50).
`Cc1nc2c(s1)N(Cc1cccc(C(F)(F)F)c1)C(=O)CS2(=O)=O` [Compound I-28]: on human KCa3.1, 4 µM corresponded to half-maximal inhibition (IC50).
For the molecule `Cc1nc2c(s1)N(Cc1cccc(OC(F)(F)F)c1)C(=O)CS2(=O)=O` [Compound I-29], the IC50 against human KCa3.1 was 2.4 µM.
In turn, `O=C1CS(=O)(=O)c2nc(C3CC3)sc2N1Cc1cccc(C(F)(F)F)c1` [Compound I-30] yielded an IC50 on human KCa3.1 of 4.3 µM.
Molecule `O=C1CS(=O)(=O)c2ncsc2N1Cc1cccc(OC(F)(F)F)c1` [Compound I-31] gave an IC50 on human KCa3.1 of 2.2 µM.
Turning to `CC(c1cccc(C(F)(F)F)c1)N1C(=O)CS(=O)(=O)c2ncsc21` (stereo not shown) [Compound I-32], on human KCa3.1, the concentration for half-maximal inhibition (IC50) amounted to 1 µM.
In turn, `O=C1CS(=O)(=O)c2scnc2N1Cc1ccc(F)c(OC(F)(F)F)c1` [Compound I-33] showed an IC50 on human KCa3.1 of 0.11 µM.
`CC(C)c1nc2c(s1)S(=O)(=O)CC(=O)N2Cc1ccc(F)c(OC(F)(F)F)c1` [Compound I-34] gave an IC50 against human KCa3.1 of 0.096 µM.
For `CC(C)c1nc2c(s1)S(=O)(=O)CC(=O)N2Cc1cccc(C(F)(F)F)c1` [Compound I-35], the midpoint of inhibition on human KCa3.1, the IC50, lay at 0.24 µM.
Turning to `CC(C)c1nc2c(s1)S(=O)(=O)CC(=O)N2Cc1cccc(OC(F)(F)F)c1` [Compound I-36], the IC50 at human KCa3.1 turned out to be 0.38 µM.
The molecule `Cc1nc2c(s1)S(=O)(=O)CC(=O)N2Cc1cccc(C(F)(F)F)c1` [Compound I-37] had an IC50 on human KCa3.1 of 0.23 µM.
Molecule `CC(c1cccc(C(F)(F)F)c1)N1C(=O)CS(=O)(=O)c2ccsc21` (stereo not shown) [Compound I-38] came in with an IC50 against human KCa3.1 of 0.071 µM.
For the molecule `O=C1CS(=O)(=O)c2ccsc2N1Cc1ccc(F)c(OC(F)(F)F)c1` [Compound I-39], the IC50 against human KCa3.1 turned out to be 0.039 µM.
`O=C1CS(=O)(=O)c2sccc2N1Cc1ccc(F)c(OC(F)(F)F)c1` [Compound I-40] came in with an IC50 at human KCa3.1 of 0.048 µM.
Consider `COC(=O)c1cc2c(s1)S(=O)(=O)CC(=O)N2Cc1cccc(C(F)(F)F)c1` [Compound I-41], for which half-maximal inhibition against human KCa3.1 (IC50) was put at 0.19 µM.
Still for that read-out and setting: the figure for `COC(=O)c1cc2c(s1)S(=O)(=O)CC(=O)N2Cc1cccc(OC(F)(F)F)c1` [Compound I-42] is 0.15 µM.
In turn, `COC(=O)c1cc2c(s1)S(=O)(=O)CC(=O)N2C(C)c1cccc(C(F)(F)F)c1` (stereo not shown) [Compound I-43] returned an IC50 against human KCa3.1 of 0.12 µM.
In the case of `O=C1CSc2cccnc2N1Cc1cccc(OC(F)(F)F)c1` [II-1, 4-(3-trifluoromethoxy-benzyl)-4H-pyrido[3,2-b][1,4]thiazin-3-one], at human KCa3.1, half-maximal inhibition (IC50) was put at 0.052 µM.
In the case of `O=C1CSc2ncsc2N1Cc1cccc(C(F)(F)F)c1` [II-2, 7-(3-trifluoromethyl-benzyl)-7H-thiazolo[4,5-b][1,4]thiazin-6-one], on human KCa3.1, it took 0.32 µM to reach half-maximal inhibition (IC50).
As to `NC(=O)c1ccc2c(n1)N(Cc1ccc(Cl)c(C(F)(F)F)c1)C(=O)CS2` [II-3], inhibition against human KCa3.1 was half-maximal at 0.18 µM (IC50).
In turn, `CC(c1cccc(C(F)(F)F)c1)N1C(=O)CSc2cccnc21` (stereo not shown) [II-4] came in with an IC50 on human KCa3.1 of 0.041 µM.
As to `O=C1CSc2cccnc2N1Cc1ccc(Cl)c(C(F)(F)F)c1` [II-5], the IC50 against human KCa3.1 is 0.046 µM.
With `CC(c1cc(C(F)(F)F)nn1C)N1C(=O)CSc2cccnc21` (stereo not shown) [II-6], half-maximal inhibition against human KCa3.1 (IC50) was put at 3.6 µM.
For `O=C1CSc2cccnc2N1Cc1ccc(Cl)c(SC(F)(F)F)c1` [II-7], the midpoint of inhibition at human KCa3.1, the IC50, lay at 0.052 µM.
The same measure, in the same setting: under `O=C1CSc2cccnc2N1Cc1ccc(Cl)c(S(=O)(=O)C(F)(F)F)c1` [II-8] stands 0.047 µM; under `O=C1CSc2cc(Cl)cnc2N1Cc1ccc(F)c(OC(F)(F)F)c1` [II-9], 0.13 µM.
With `O=C1CSc2cccnc2N1Cc1cccc(Br)c1` [II-10], the IC50 against human KCa3.1 amounted to 0.31 µM.
For the molecule `O=C1CSc2ccc(CO)nc2N1Cc1ccc(Cl)c(C(F)(F)F)c1` [II-11], the IC50 against human KCa3.1 stood at 0.066 µM.
On to `Cc1nc2c(s1)N(Cc1cccc(OC(F)(F)F)c1)C(=O)CS2` [II-12], for which, on human KCa3.1, the IC50 amounted to 0.26 µM.
On human KCa3.1, `O=C1CSc2ncsc2N1Cc1cccc(OC(F)(F)F)c1` [II-13] yielded an IC50 of 0.16 µM.
On human KCa3.1, `O=C1CSc2nc(C3CC3)sc2N1Cc1cccc(C(F)(F)F)c1` [II-14] had an IC50 of 1.6 µM.
Take `Cc1nc2c(s1)N(Cc1cccc(C(F)(F)F)c1)C(=O)CS2` [II-15]: the IC50 on human KCa3.1 was determined as 0.49 µM.
In turn, `CC(c1cccc(C(F)(F)F)c1)N1C(=O)CSc2ncsc21` (stereo not shown) [II-16] registered an IC50 against human KCa3.1 of 0.17 µM.
In turn, `O=C1CSc2ncsc2N1Cc1ccc(F)c(OC(F)(F)F)c1` [II-17] displayed an IC50 on human KCa3.1 of 0.06 µM.
On to `CC(C)c1nc2c(s1)SCC(=O)N2Cc1ccc(F)c(OC(F)(F)F)c1` [II-18], for which it took 0.25 µM to reach half-maximal inhibition against human KCa3.1 (IC50).
As for `CC(C)c1nc2c(s1)SCC(=O)N2Cc1cccc(C(F)(F)F)c1` [II-19], half-maximal inhibition at human KCa3.1 (IC50) required 0.34 µM.
`CC(C)c1nc2c(s1)SCC(=O)N2Cc1cccc(OC(F)(F)F)c1` [II-20]: it took 0.51 µM to reach half-maximal inhibition at human KCa3.1 (IC50).
Turning to `CC(C)c1nc2c(s1)SCC(=O)N2C(C)c1cccc(C(F)(F)F)c1` (stereo not shown) [II-21], the IC50 at human KCa3.1 came out at 0.4 µM.
`Cc1nc2c(s1)SCC(=O)N2Cc1cccc(C(F)(F)F)c1` [II-22] came in with an IC50 on human KCa3.1 of 0.073 µM.
In the case of `Cc1nc2c(s1)SCC(=O)N2C(C)c1cccc(C(F)(F)F)c1` (stereo not shown) [II-23], the IC50 against human KCa3.1 is 0.067 µM.
Turning to `Clc1ccccc1C(c1ccccc1)(c1ccccc1)n1cccn1` [TRAM-34], the development of atherosclerosis result in the test with aortas of ApoE−/− mice is on record as “significantly reduces the development of atherosclerosis”. Further, the “inhibition in EAE model” value in the test with C57BL/6 mice is reported as “inhibits”. Also, the “progression of renal fibrosis” value in the test with mice was “attenuated progression of renal fibrosis”.
For the molecule `Clc1ccccc1C(c1ccccc1)(c1ccccc1)n1ccnc1` [clotrimazole], the development of atherosclerosis entry in the test on aortas of ApoE−/− mice is on record as “significantly reduces the development of atherosclerosis”.
